# Reference: ChEMBL document CHEMBL4831541, “Antibiotic Conjugates with an Artificial MECAM-Based Siderophore Are Potent Agents against Gram-Positive and Gram-Negative Bacterial Pathogens” (2021)
# Activity calls are given as the source filed them. No cut-off for these calls is given here.
# What was measured:
# Staphylococcus aureus = assay: Antibacterial activity against Staphylococcus aureus DSM11822 assessed as growth inhibition by measuring minimal concentration at OD600 by visual inspection with iron-limited media incubated for 24 hrs; assay type: functional
# Escherichia coli [1] = assay: Antibacterial activity against Escherichia coli delta fepA delta cirA delta fiu assessed as growth inhibition by measuring minimal concentration at OD600 by visual inspection with iron-limited media incubated for 24 hrs; assay type: functional
# Escherichia coli [2] = assay: Antibacterial activity against Escherichia coli delta fepB assessed as growth inhibition by measuring minimal concentration at OD600 by visual inspection with iron-limited media incubated for 24 hrs; assay type: functional
# Escherichia coli [3] = assay: Antibacterial activity against Escherichia coli delta […] delta fiu assessed as growth inhibition by measuring minimal concentration at OD600 by visual inspection with iron-limited media incubated for 24 hrs; assay type: functional
# Escherichia coli [4] = assay: Antibacterial activity against Escherichia coli delta tonB assessed as growth inhibition by measuring minimal concentration at OD600 by visual inspection with iron-limited media incubated for 24 hrs; assay type: functional
# Escherichia coli [5] = assay: Antibacterial activity against Escherichia coli delta cirA assessed as growth inhibition by measuring minimal concentration at OD600 by visual inspection with iron-limited media incubated for 24 hrs; assay type: functional
# Escherichia coli [6] = assay: Antibacterial activity against wild type Escherichia coli BW25113 assessed as growth inhibition by measuring minimal concentration at OD600 by visual inspection with iron-limited media incubated for 24 hrs; assay type: functional
# Escherichia coli [7] = assay: Antibacterial activity against Escherichia coli delta exbB assessed as growth inhibition by measuring minimal concentration at OD600 by visual inspection with iron-limited media incubated for 24 hrs; assay type: functional
# Enterococcus faecium = assay: Antibacterial activity against Enterococcus faecium DSM20477 assessed as growth inhibition by measuring minimal concentration at OD600 by visual inspection with iron-limited media incubated for 24 hrs; assay type: functional
# Acinetobacter baumannii = assay: Antibacterial activity against Acinetobacter baumannii DSM30007 assessed as growth inhibition by measuring minimal concentration at OD600 by visual inspection with iron-limited media incubated for 24 hrs; assay type: functional
# Escherichia coli [8] = assay: Antibacterial activity against Escherichia coli delta cirA delta fiu assessed as growth inhibition by measuring minimal concentration at OD600 by visual inspection with iron-limited media incubated for 24 hrs; assay type: functional
# Escherichia coli [9] = assay: Antibacterial activity against Escherichia coli delta fepA assessed as growth inhibition by measuring minimal concentration at OD600 by visual inspection with iron-limited media incubated for 24 hrs; assay type: functional
# Escherichia coli [10] = assay: Antibacterial activity against Escherichia coli BW25113 assessed as growth inhibition by measuring minimal concentration at OD600 by visual inspection with iron-limited media incubated for 24 hrs; assay type: functional
# Escherichia coli [11] = assay: Antibacterial activity against Escherichia coli delta fiu assessed as growth inhibition by measuring minimal concentration at OD600 by visual inspection with iron-limited media incubated for 24 hrs; assay type: functional
# Escherichia coli [12] = assay: Antibacterial activity against Escherichia coli delta fepA delta cirA assessed as growth inhibition by measuring minimal concentration at OD600 by visual inspection with iron-limited media incubated for 24 hrs; assay type: functional
# Escherichia coli [13] = assay: Antibacterial activity against Escherichia coli delta fepD assessed as growth inhibition by measuring minimal concentration at OD600 by visual inspection with iron-limited media incubated for 24 hrs; assay type: functional
# Escherichia coli [14] = assay: Recovery of growth in Escherichia coli BW25113 delta entA assessed as reversal of growth at 10 uM in presence of 0.1 uM iron(III) chloride hexahydrate by growth recovery assay; assay type: functional, organism-based
# Klebsiella pneumoniae = assay: Antibacterial activity against Klebsiella pneumoniae DSM11678 assessed as growth inhibition by measuring minimal concentration at OD600 by visual inspection with iron-limited media incubated for 24 hrs; assay type: functional, organism-based
# Pseudomonas aeruginosa = assay: Antibacterial activity against Pseudomonas aeruginosa DSM24068 assessed as growth inhibition by measuring minimal concentration at OD600 by visual inspection with iron-limited media incubated for 24 hrs; assay type: functional, organism-based
Structure (SMILES),MIC (Staphylococcus aureus),MIC (Escherichia coli [1]),MIC (Escherichia coli [2]),MIC (Escherichia coli [3]),MIC (Escherichia coli [4]),MIC (Escherichia coli [5]),MIC (Escherichia coli [6]),MIC (Escherichia coli [7]),MIC (Enterococcus faecium),MIC (Acinetobacter baumannii),MIC (Escherichia coli [8]),MIC (Escherichia coli [9]),MIC (Escherichia coli [10]),MIC (Escherichia coli [11]),MIC (Escherichia coli [12]),MIC (Escherichia coli [13]),Activity (Escherichia coli [14]),Activity (Klebsiella pneumoniae),Activity (Pseudomonas aeruginosa)
CC1(C)S[C@@H]2[C@H](NC(=O)[C@H](N)c3ccccc3)C(=O)N2[C@H]1C(=O)O [AMPICILLIN],> 183 µM,46 µM,46 µM,46 µM,46 µM,46 µM,46 µM,46 µM,2.7 µM,> 183 µM,46 µM,46 µM,19 µM,46 µM,46 µM,46 µM,,,
CC1(C)S[C@@H]2[C@H](NC(=O)[C@H](N)c3ccc(O)cc3)C(=O)N2[C@H]1C(=O)O [AMOXICILLIN],> 175 µM,,,,,,,,1.3 µM,> 175 µM,,,18 µM,,,,,,
CC(=O)Oc1cccc(C(=O)NCCc2cc(CCNC(=O)c3cccc(OC(C)=O)c3OC(C)=O)c([N+](=O)[O-])c(CCNC(=O)c3cccc(OC(C)=O)c3OC(C)=O)c2)c1OC(C)=O,,,,,,,,,,,,,,,,,Active,,
CC(C)(O/N=C(\C(=O)N[C@@H]1C(=O)N2C(C(=O)[O-])=C(C[N+]3(CCNC(=O)c4ccc(O)c(O)c4Cl)CCCC3)CS[C@H]12)c1csc(N)n1)C(=O)O [CEFIDEROCOL],> 85 µM,> 21 µM,0.083 µM,0.66 µM,> 21 µM,0.66 µM,33 µM,5.3 µM,> 85 µM,0.053 µM,21 µM,0.17 µM,0.042 µM,0.66 µM,0.17 µM,0.083 µM,,,
CC1(C)S[C@@H]2[C@H](NC(=O)[C@H](NC(=O)CCn3cc(CCCC(=O)Nc4c(CNC(=O)c5cccc(O)c5O)cc(CNC(=O)c5cccc(O)c5O)cc4CNC(=O)c4cccc(O)c4O)nn3)c3ccccc3)C(=O)N2[C@H]1C(=O)O,5.3 µM,,,,,,,,> 57 µM,> 57 µM,,,0.89 µM,,,,,inactive,inactive
CC(=O)Oc1cccc(C(=O)NCc2cc(CNC(=O)c3cccc(OC(C)=O)c3OC(C)=O)c(CNC(=O)c3cccc(OC(C)=O)c3OC(C)=O)c([N+](=O)[O-])c2)c1OC(C)=O,,,,,,,,,,,,,,,,,Active,,
CC(=O)Oc1cccc(C(=O)NCc2cc(CNC(=O)c3cccc(OC(C)=O)c3OC(C)=O)c(NC(=O)CCCc3cn(CCC(=O)N[C@@H](C(=O)N[C@@H]4C(=O)N5[C@@H]4SC(C)(C)[C@@H]5C(=O)O)c4ccc(O)cc4)nn3)c(CNC(=O)c3cccc(OC(C)=O)c3OC(C)=O)c2)c1OC(C)=O,> 46 µM,,,,,,,,> 46 µM,46 µM,,,1.4 µM,,,,,inactive,inactive
CCCCCCCCCC(=O)N[C@@H](Cc1c[nH]c2ccccc12)C(=O)N[C@H](CC(N)=O)C(=O)N[C@@H](CC(=O)O)C(=O)N[C@@H]1C(=O)NCC(=O)N[C@@H](CCCNC(=O)CCCCCn2cc(CCCC(=O)Nc3c(CNC(=O)c4cccc(O)c4O)cc(CNC(=O)c4cccc(O)c4O)cc3CNC(=O)c3cccc(O)c3O)nn2)C(=O)N[C@@H](CC(=O)O)C(=O)N[C@H](C)C(=O)N[C@@H](CC(=O)O)C(=O)NCC(=O)N[C@H](CO)C(=O)N[C@@H]([C@@H](C)CC(=O)O)C(=O)N[C@@H](CC(=O)c2ccccc2N)C(=O)O[C@@H]1C,8.7 µM,,,,,,,,13 µM,4.4 µM,,,> 64 µM,,,,,inactive,inactive
